Results reported in patent US9913838B2, “Methods of treating cancer using compositions comprising perillyl alcohol derivative” (NEONC TECHNOLOGIES INC., priority 2010, dated 2018).
Entries after “also recorded” stand apart in the source; their conditions may differ.

Key:
[1] = test system: MCF7; assay: Colony formation assay, MCF7; details: for IC50: Homo sapiens, MCF7, 48 h, read-out: IC50 (concentration required to decrease colony formation by 50%)
Protocol: (§1) Depending on the cell line (and plating efficiency), 200-350 cells were seeded into each well of a 6-well plate. […] Thereafter, the drugs were removed, fresh growth medium was added, and the cells were kept in culture undisturbed for 12-16 days, during which time the surviving cells spawned colonies of descendants. Colonies (defined as groups of >50 cells) were visualized by staining for 4 hours with 1% methylene blue (in methanol), and then were counted.
(§2) In the case of O6-BG treatment, cells were pretreated with 10 μM O6-BG for one hour before addition of TMZ or TMZ-POH. After 24 hours, another 10 μM O6-BG was added to the medium. Another 24 hours later, drug-laced medium was removed, and fresh medium without drugs was added. Thereafter, cells remained undisturbed until staining with methylene blue.
(§3) The cytotoxic potency of TMZ-POH, was analyzed by colony formation assay (CFA) in a variety of human breast cancer cell lines and compared to the cytotoxicity of TMZ. We used estrogen receptor positive cells MCF7 and T47D, the triple-negative lines MDA-MB-231, MDA-MB-468, and HCC-1937, and a brain-seeking variant of the 231 cell line, MDA-MB-231-br.

[2] = test system: 231-MGMT-2; assay: Colony formation assay, MGMT-transfected 231-MGMT-2; type: cell-based, human; details: for IC50: Homo sapiens, 48 h, read-out: IC50 (concentration required to decrease colony formation by 50%)
Protocol: as §1, §2
MDA-MB-231 cells were co-transfected in 6-well plates with the use of Lipofectamine 2000 (Invitrogen, Carlsbad, Calif.) according to manufacturer's instructions. 2 μg pSV2MGMT (containing the human MGMT cDNA) was combined with 0.2 μg pSV2neo (containing the neomycin gene for selection of cells in G418). Both plasmids were provided by Bernd Kaina (Mainz, Germany). Individual clones of transfected cells were selected in medium containing 750 μg/mL G418 and propagated in 250 μg/mL G418. G418 was obtained as G418 disulfate salt from Sigma-Aldrich and dissolved in PBS at 75 mg/mL. Selection medium was removed from cells several days before experimental drug treatment.
To investigate the latter, we stably transfected MGMT-negative MDA-MB-231 cells with MGMT cDNA and isolated individual clones. […] Both clones were treated with increasing concentrations of TMZ-POH and TMZ and analyzed by CFA.

[3] = test system: MDA-MB-231-br; assay: Colony formation assay, MDA-MB-231-br; type: cell-based, human; details: for IC50: Homo sapiens, 48 h, read-out: IC50 (concentration required to decrease colony formation by 50%)
Protocol: as §1, §3

[4] = test system: MDA-MB-231; assay: cells; details: for reduction of colony formation: 10 μM (each), 48 hours; for IC50: Homo sapiens, MDA-MB-231, 48 h, read-out: IC50 (concentration required to decrease colony formation by 50%)
Protocol: as §1, §2, §3
Thus, we tested whether simply mixing the two compounds TMZ and POH could mimic the effects of the TMZ-POH conjugate. MDA-MB-231 cells were treated with the individual compounds (TMZ-POH, TMZ or POH) alone, or with an equimolar mix of TMZ plus POH, and cell survival was analyzed by CFA.

[5] = test system: MDA-MB-468; assay: Colony formation assay, MDA-MB-468; details: for IC50: Homo sapiens, MDA-MB-468, 48 h, read-out: IC50 (concentration required to decrease colony formation by 50%)
Protocol: as §1, §2, §3

[6] = test system: MDA-MB-231 cells; assay: Determination of drug stability by colony formation assay; type: cell-based, human; details: for colony survival: drugs in the medium for 24 hours; for reduction of colony formation: one-hour exposure; for survival: two-hour exposure; for reduction of survival: added straight to cells, 24 hours; for colony-forming ability of receiving cells: supernatant transferred after prior one-hour incubation
Protocol: FIGS. 26A-26C depicts determination of drug stability, where MDA-MB-231 cells were analyzed in colony formation assays. In FIG. 26A, cells were treated with 15 μM TMZ-POH or 30 μM TMZ for 30 min or 1, 2, 4, and 24 hours. Thereafter, drug-containing medium was removed, fresh medium (without drug) was added, and cells remained undisturbed until colony staining 12 days later. The arrows indicate which cells received which supernatant. After 24 hours of incubation, all drug-containing medium was removed, fresh medium (without drug) was added, and cells remained undisturbed until colony staining 12 days later. […] Left panel (untreated): control cells without drug treatment. Middle panel (0-24 h): Cells received 15 μM TMZ-POH or 30 μM TMZ for 24 hours. Right panel (1-25 h): TMZ-POH and TMZ were incubated in neutral buffer at 37° C. for 1 hour before addition to cells to a final concentration of 15 μM TMZ-POH and 30 μM TMZ for 24 hours.
TMZ is a prodrug, and it is well known that its activation takes place spontaneously in aqueous solution at 37° C. (i.e., no cellular functions are required for this conversion). As well, the half-lives of both prodrug and active product are fairly short, where all cytotoxic triggers are set within the first few hours of treatment. […] First, we exposed cells to variably short periods of drug treatment, washed off the drug, and then continued to keep cells in medium without drug to determine survival and colony-forming ability. For most of these experiments, we used 15 μM TMZ-POH and 30 μM TMZ, because these concentrations are approximately equipotent in the >90% cytotoxicity range (when measured by CFAs and a drug exposure time of 24 hours).
Thus, TMZ acted more quickly than TMZ-POH; it required only 4 hours to exert maximum toxicity, whereas TMZ-POH had not yet reached its maximum impact at this time point.
We next modified this experiment as follows. After cells had been exposed to drug treatment for the specific times shown in FIG. 26A, we removed the medium containing the drug from the cells, and transferred this supernatant to fresh cells, which were then exposed for 24 hours. […] In contrast, when supernatant was transferred after prior one-hour incubation, colony-forming ability of receiving cells was 48% in cells receiving TMZ-containing supernatant, and 22% in TMZ-POH-containing supernatant.
To exclude the involvement of cellular enzymes in the turnover of TMZ-POH, we incubated TMZ-POH (and TMZ) in phosphate-buffered saline at 37° C. for one hour (in the absence of cells). After this pre-incubation, TMZ-POH and TMZ were added to cells for 24 hours, and survival was determined by CFA. As a control, both drugs were also added to cells without prior incubation in aqueous solution. A representative CFA is shown in FIG. 26C, where the middle panel confirms that both drugs were used at approximately equipotent concentrations; i.e., when added straight to cells, they reduced survival by ˜95%. However, pre-incubation in aqueous solution for only one hour preempted the cytotoxic potency of TMZ by about 50%, but that of TMZ-POH much less (80% remaining; see right panel).

[7] = test system: USC-02 glioma cancer stem cells; assay: MTT cytotoxicity assay, USC-02 glioma cancer stem cells; type: cell-based
Excerpt: Cancer Lett. 2011 Mar. 28; 302(2):100-8.

[8] = low micromolar concentrations, 48 hours, in words

SMILES | IC50 [1] | IC50 [2] | IC50 [3] | reduction of colony formation ([4]; MDA-MB-231) | IC50 [4] | IC50 [5] | colony survival ([6]; 15 μM TMZ-POH or 30 μM TMZ) | reduction of colony formation ([6]; 15 μM TMZ-POH or 30 μM TMZ) | survival ([6]; 15 μM TMZ-POH or 30 μM TMZ) | reduction of survival ([6]; 15 μM TMZ-POH or 30 μM TMZ) | colony-forming ability of receiving cells [6] | also measured
Cn1nnc2c(C(N)=O)ncn2c1=O [TMZ, temozolomide, reference compound] | 513 µM | 212 µM | 3.8 µM | about 50% | 9.9 µM | 195 µM | ~8% | > 50% | 23% | ~95% | 48% | cytotoxicity (MTT assay) ([7]; TMZ 0-400 uM, POH 0-2 mM, in words): did not induce significant cytotoxicity
C=C(C)[C@@H]1CC=C(COC(=O)NC(=O)c2ncn3c(=O)n(C)nnc23)CC1 [TMZ-POH] | 33 µM | 34 µM | 1.2 µM | about 95% | 2.3 µM | 31 µM | about 3% | 20% | 51% | ~95% | 22% | Differential (−fold) ([1]; fold increase in potency of TMZ-POH compared to TMZ, MCF7): 15.5 −fold; colony formation (CFA) [1, 8]: prevented colony formation; Differential (−fold) ([2]; fold increase in potency of TMZ-POH compared to TMZ, 231-MGMT-2): 6.2 −fold; Differential (−fold) ([3]; fold increase in potency of TMZ-POH compared to TMZ, MDA-MB-231-br): 3.2 −fold; colony formation (CFA) [3, 8]: prevented colony formation; Differential (−fold) ([4]; fold increase in potency of TMZ-POH compared to TMZ, MDA-MB-231): 4.3 −fold; Differential (−fold) ([5]; fold increase in potency of TMZ-POH compared to TMZ, MDA-MB-468): 6.3 −fold; colony formation (CFA) [5, 8]: prevented colony formation; time required to exert maximum toxicity ([6]; 15 μM TMZ-POH or 30 μM TMZ): > 4 h; stability / retention of cytotoxic potency ([6]; in words): retained its cytotoxic potency substantially longer than TMZ; also recorded: more stable than TMZ; cytotoxic potency remaining after pre-incubation ([6]; phosphate-buffered saline at 37° C. for one hour, absence of cells): 80%; cytotoxic activity of supernatant transferred after prior 24-hours of incubation ([6]; receiving cells exposed 24 hours, in words): no cytotoxic activity remained; IC50 ([7]; read-out: cytotoxicity with 1050): 60 µM
